Experimental data taken from US11420975B2, “Substituted imidazo[1,5-a]pyrazines as Bruton's tyrosine kinase inhibitors” (TRANSTHERA SCIENCES (NANJING), INC., priority 2018, dated 2022).
pIC50: −log10 of the molar value.

Key:
BTK(C481S) = BTK(C481S) (Homo sapiens (Human), UniProt Q06187, C481S); experiment: In vitro inhibitory activity against BTK(C481S) enzyme (33P-ATP filter binding); type: biochemical; conditions: class symbols; read-out: IC50 BTK(C48IS)
Protocol: (§1) The substrate solution was prepared by adding the substrate poly(Glu, Tyr) sodium salt (Sigma Aldrich, St. Louis, Mo.) to the substrate reaction buffer (20 mM Hepes (pH 7.5), 10 mM MgCl2, 1 mM EGTA, 0.02% Brij35, 0.02 mg/mL BSA, 0.1 mM Na3VO4, 2 mM DTT and 1% DMSO) (final substrate concentration in the reaction solution was 0.2 μM). Test compound was formulated into stock solutions at 10 mM concentration with 100% DMSO, and 3-fold serial dilution for 10 doses was performed in a 384-well cyclic olefin copolymer LDV microplate. […] Test compound in 100% DMSO was then added to the kinase reaction mixture by acoustic liquid transfer technology (Echo 550; nanoliter range) (Labcyte Inc, Sunnyvale, Calif.) and incubated for 20 min at room temperature. 33P-ATP (specific activity 10 μCi/μL) was added to the reaction mixture to initiate the reaction, followed by incubation at room temperature for 2 h. A small portion of the reaction mixture was dropped onto P-81 ion exchange filter paper (Whatman). After washing the unbound phosphate from the filter paper with 0.75% phosphate buffer (three times) and drying, the remaining radioactivity on the filter paper was measured. The kinase activity was expressed as the percentage of the remaining kinase activity in the test sample to the kinase activity in the vehicle (dimethyl sulfoxide) blank control. IC50 values were calculated by curve fitting the data obtained using Prism (GraphPad Software).

BTK(wt) = BTK(wt) (Homo sapiens (Human), UniProt Q06187); experiment: In vitro inhibitory activity against BTK(wt) enzyme (33P-ATP filter binding); type: biochemical; conditions: class symbols
Chain of BTK(wt) (Q06187 whole entry): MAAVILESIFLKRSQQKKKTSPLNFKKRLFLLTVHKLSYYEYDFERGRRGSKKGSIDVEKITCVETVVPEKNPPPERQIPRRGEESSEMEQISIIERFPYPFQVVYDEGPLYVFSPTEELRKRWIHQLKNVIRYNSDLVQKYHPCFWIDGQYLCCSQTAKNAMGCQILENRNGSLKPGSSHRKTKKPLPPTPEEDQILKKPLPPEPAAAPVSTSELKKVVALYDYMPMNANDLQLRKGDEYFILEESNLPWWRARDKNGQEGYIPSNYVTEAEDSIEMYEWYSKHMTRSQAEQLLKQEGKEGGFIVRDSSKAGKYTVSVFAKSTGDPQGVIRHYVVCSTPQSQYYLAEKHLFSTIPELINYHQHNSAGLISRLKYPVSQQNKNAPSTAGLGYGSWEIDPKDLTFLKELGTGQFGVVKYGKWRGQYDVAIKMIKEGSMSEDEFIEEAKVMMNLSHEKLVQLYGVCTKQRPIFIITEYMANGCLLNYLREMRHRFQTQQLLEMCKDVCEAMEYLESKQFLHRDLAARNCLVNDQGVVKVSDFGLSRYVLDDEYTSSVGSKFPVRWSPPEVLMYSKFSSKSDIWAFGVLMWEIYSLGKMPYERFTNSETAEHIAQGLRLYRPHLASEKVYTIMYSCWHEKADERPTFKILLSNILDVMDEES
Protocol: as §1

Chain of BTK(C481S) (Q06187 whole entry C481S): as the sequence (Q06187 whole entry) above, with C481S counted along it

Row | pIC50 (BTK(C481S)) | pIC50 (BTK(wt)) | SMILES
1 | ≥ 10.00 | 8.00 to 9.00 | N#CCC(=O)NC12CCC(c3nc(-c4ccc(C(=O)Nc5cc(C(F)(F)F)ccn5)cc4)c4c(N)nccn34)(CC1)C2 [Compound A-10-13, 4-(8-amino-3-(4-(2-cyanoacetamido)bicyclo[2.2.1]heptan-1-yl)imidazo[1,5-a]pyrazin-1-yl)-N-(4-(trifluoromethyl)pyridin-2-yl)benzamide]
2 | 8.00 to 9.00 | 8.00 to 9.00 | CC(C)(O)C(=O)NC12CCC(c3nc(-c4ccc(Oc5ccccc5)cc4)c4c(N)nccn34)(CC1)C2 [Compound A-13-1, N-(4-(8-amino-1-(4-phenoxyphenyl)imidazo[1,5-a]pyrazin-3-yl)bicyclo[2.2.1]heptan-1-yl)-2-hydroxy-2-methylpropanamide]
3 | 9.00 to 10.00 | 8.00 to 9.00 | N#CC1(C(=O)NC23CCC(c4nc(-c5ccc(C(=O)Nc6cc(C(F)(F)F)ccn6)cc5)c5c(N)nccn45)(CC2)C3)CCOCC1 [Compound A-10-15, N-(4-(8-amino-1-(4-((4-(trifluoromethyl)pyridin-2-yl)carbamoyl)phenyl)imidazo[1,5-a]pyrazin-3-yl)bicyclo[2.2.1]heptan-1-yl)-4-cyanotetrahydro-2H-pyran-4-carboxamide]
4 | 8.00 to 9.00 | 7.30 to 8.00 | Nc1nccn2c(C34CCC(NC(=O)c5cccnc5)(CC3)C4)nc(-c3ccc(C(=O)Nc4cc(C(F)(F)F)ccn4)cc3)c12 [Compound A-10-19, N-(4-(8-amino-1-(4-((4-(trifluoromethyl)pyridin-2-yl)carbamoyl)phenyl)imidazo[1,5-a]pyrazin-3-yl)bicyclo[2.2.1]heptan-1-yl)nicotinamide]
5 | 8.00 to 9.00 | 8.00 to 9.00 | Nc1nccn2c(C34CCC(NC(=O)c5ccco5)(CC3)C4)nc(-c3ccc(C(=O)Nc4cc(C(F)(F)F)ccn4)cc3)c12 [Compound A-10-21, N-(4-(8-amino-1-(4-((4-(trifluoromethyl)pyridin-2-yl)carbamoyl)phenyl)imidazo[1,5-a]pyrazin-3-yl)bicyclo[2.2.1]heptan-1-yl)furan-2-carboxamide]
6 | 9.00 to 10.00 | 8.00 to 9.00 | C=CC(=O)NC12CCC(c3nc(-c4ccc(C(=O)Nc5cc(C(F)(F)F)ccn5)cc4)c4c(N)nccn34)(CC1)C2 [Compound A-10-3, 4-(3-(4-acrylamidobicyclo[2.2.1]heptan-1-yl)-8-aminoimidazo[1,5-a]pyrazin-1-yl)-N-(4-(trifluoromethyl)pyridin-2-yl)benzamide]
7 | 9.00 to 10.00 | 8.00 to 9.00 | CC#CC(=O)NC12CCC(c3nc(-c4ccc(CNC(=O)c5cc(F)ccc5OC)cc4)c4c(N)nccn34)(CC1)C2 [Compound A-7-12, N-(4-(8-amino-3-(4-(but-2-ynamido)bicyclo[2.2.1]heptan-1-yl)imidazo[1,5-a]pyrazin-1-yl)benzyl)-5-fluoro-2-methoxybenzamide]
8 | 8.00 to 9.00 | 8.00 to 9.00 | COCCC(=O)NC12CCC(c3nc(-c4ccc(CNC(=O)c5cc(F)ccc5OC)cc4)c4c(N)nccn34)(CC1)C2 [Compound A-16-2, N-(4-(8-amino-3-(4-(3-methoxypropanamido)bicyclo[2.2.1]heptan-1-yl)imidazo[1,5-a]pyrazin-1-yl)benzyl)-5-fluoro-2-methoxybenzamide]
9 | 8.00 to 9.00 | 7.30 to 8.00 | Nc1nccn2c(C34CCC(NC(=O)CN5CCOCC5)(CC3)C4)nc(-c3ccc(Oc4ccccc4)cc3)c12 [Compound A-13-4, N-(4-(8-amino-1-(4-phenoxyphenyl)imidazo[1,5-a]pyrazin-3-yl)bicyclo[2.2.1]heptan-1-yl)-2-morpholinoacetamide]
10 | 9.00 to 10.00 | 8.00 to 9.00 | CC#CC(=O)NC12CCC(c3nc(-c4ccc(C(=O)Nc5cc(C(F)(F)F)ccn5)cc4F)c4c(N)nccn34)(CC1)C2 [Compound A-7-9, 4-(8-amino-3-(4-(but-2-ynamido)bicyclo[2.2.1]heptan-1-yl)imidazo[1,5-a]pyrazin-1-yl)-3-fluoro-N-(4-(trifluoromethyl)pyridin-2-yl)benzamide]
11 | 9.00 to 10.00 | 8.00 to 9.00 | CC#CC(=O)NC12CCC(c3nc(-c4ccc(C(=O)Nc5cc(F)ccn5)cc4)c4c(N)nccn34)(CC1)C2 [Compound A-7-2, 4-(8-amino-3-(4-(but-2-ynamido)bicyclo[2.2.1]heptan-1-yl)imidazo[1,5-a]pyrazin-1-yl)-N-(4-fluoropyridin-2-yl)benzamide]
12 | ≥ 10.00 | 8.00 to 9.00 | CC1(C(=O)NC23CCC(c4nc(-c5ccc(C(=O)Nc6cc(C(F)(F)F)ccn6)cc5)c5c(N)nccn45)(CC2)C3)COC1 [Compound A-10-5, N-(4-(8-amino-1-(4-((4-(trifluoromethyl)pyridin-2-yl)carbamoyl)phenyl)imidazo[1,5-a]pyrazin-3-yl)bicyclo[2.2.1]heptan-1-yl)-3-methyloxetane-3-carboxamide]
13 | 9.00 to 10.00 | 8.00 to 9.00 | CC(C#N)C(=O)NC12CCC(c3nc(-c4ccc(C(=O)Nc5cc(C(F)(F)F)ccn5)cc4)c4c(N)nccn34)(CC1)C2 (stereo not shown) [Compound A-10-14, 4-(8-amino-3-(4-(2-cyanopropanamido)bicyclo[2.2.1]heptan-1-yl)imidazo[1,5-a]pyrazin-1-yl)-N-(4-(trifluoromethyl)pyridin-2-yl)benzamide]
14 | 8.00 to 9.00 | 8.00 to 9.00 | CC#CC(=O)NC12CCC(n3c(=O)n(-c4ccc(C(=O)Nc5cc(C(F)(F)F)ccn5)cc4)c4c(N)ncnc43)(CC1)C2 [Compound C-7-1, 4-(6-amino-9-(4-(but-2-ynamido)bicyclo[2.2.1]heptan-1-yl)-8-oxo-8,9-dihydro-7H-purin-7-yl)-N-(4-(trifluoromethyl)pyridin-2-yl)benzamide]
15 | ≥ 10.00 | 8.00 to 9.00 | COCCC(=O)NC12CCC(c3nc(-c4ccc(C(=O)Nc5cc(C(F)(F)F)ccn5)cc4)c4c(N)nccn34)(CC1)C2 [Compound A-10-8, 4-(8-amino-3-(4-(3-methoxypropanamido)bicyclo[2.2.1]heptan-1-yl)imidazo[1,5-a]pyrazin-1-yl)-N-(4-(trifluoromethyl)pyridin-2-yl)benzamide]
16 | 8.00 to 9.00 | 8.00 to 9.00 | Nc1nccn2c(C34CCC(NC(=O)c5nccs5)(CC3)C4)nc(-c3ccc(C(=O)Nc4cc(C(F)(F)F)ccn4)cc3)c12 [Compound A-10-22, N-(4-(8-amino-1-(4-((4-(trifluoromethyl)pyridin-2-yl)carbamoyl)phenyl)imidazo[1,5-a]pyrazin-3-yl)bicyclo[2.2.1]heptan-1-yl)thiazole-2-carboxamide]
17 | 9.00 to 10.00 | 8.00 to 9.00 | CC#CC(=O)NC12CCC(c3nc(-c4ccc(C(=O)Nc5cc(C#N)ccn5)cc4)c4c(N)nccn34)(CC1)C2 [Compound A-7-5, 4-(8-amino-3-(4-(but-2-ynamido)bicyclo[2.2.1]heptan-1-yl)imidazo[1,5-a]pyrazin-1-yl)-N-(4-cyanopyridin-2-yl)benzamide]
18 | 8.00 to 9.00 | 7.30 to 8.00 | Nc1nccn2c(C34CCC(NC(=O)c5ccccn5)(CC3)C4)nc(-c3ccc(C(=O)Nc4cc(C(F)(F)F)ccn4)cc3)c12 [Compound A-10-18, N-(4-(8-amino-1-(4-((4-(trifluoromethyl)pyridin-2-yl)carbamoyl)phenyl)imidazo[1,5-a]pyrazin-3-yl)bicyclo[2.2.1]heptan-1-yl)picolinamide]
19 | ≥ 10.00 | 8.00 to 9.00 | CC(C)(O)C(=O)NC12CCC(c3nc(-c4ccc(C(=O)Nc5cc(C(F)(F)F)ccn5)cc4)c4c(N)nccn34)(CC1)C2 [Compound A-10-6, 4-(8-amino-3-(4-(2-hydroxy-2-methylpropanamido)bicyclo[2.2.1]heptan-1-yl)imidazo[1,5-a]pyrazin-1-yl)-N-(4-(trifluoromethyl)pyridin-2-yl)benzamide]
20 | 8.00 to 9.00 | 8.00 to 9.00 | COc1ccc(F)cc1C(=O)NCc1ccc(-c2nc(C34CCC(NC(=O)CN5CCOCC5)(CC3)C4)n3ccnc(N)c23)cc1 [Compound A-16-4, N-(4-(8-amino-3-(4-(2-morpholinoacetamido)bicyclo[2.2.1]heptan-1-yl)imidazo[1,5-a]pyrazin-1-yl)benzyl)-5-fluoro-2-methoxybenzamide]
21 | 8.00 to 9.00 | 8.00 to 9.00 | Nc1ncnc2c1c(-c1ccc(C(=O)Nc3cc(C(F)(F)F)ccn3)cc1)cn2C12CCC(NC(=O)CN3CCOCC3)(CC1)C2 [Compound B-6-5, 4-(4-amino-7-(4-(2-morpholinoacetamido)bicyclo[2.2.1]heptan-1-yl)-7H-pyrrolo[2,3-d]pyrimidin-5-yl)-N-(4-(trifluoromethyl)pyridin-2-yl)benzamide]
22 | 9.00 to 10.00 | 8.00 to 9.00 | COCC(=O)NC12CCC(c3nc(-c4ccc(C(=O)Nc5cc(C(F)(F)F)ccn5)cc4)c4c(N)nccn34)(CC1)C2 [Compound A-10-7, 4-(8-amino-3-(4-(2-methoxyacetamido)bicyclo[2.2.1]heptan-1-yl)imidazo[1,5-a]pyrazin-1-yl)-N-(4-(trifluoromethyl)pyridin-2-yl)benzamide]
23 | 8.00 to 9.00 | 8.00 to 9.00 | CC#CC(=O)NC12CCC(n3cc(-c4ccc(C(=O)Nc5cc(C(F)(F)F)ccn5)cc4)c4c(N)ncnc43)(CC1)C2 [Compound B-6-1, 4-(4-amino-7-(4-(but-2-ynamido)bicyclo[2.2.1]heptan-1-yl)-7H-pyrrolo[2,3-d]pyrimidin-5-yl)-N-(4-(trifluoromethyl)pyridin-2-yl)benzamide]
